The results in this text go back to PubChem BioAssay AID720512 (Broad Institute, 2013).

The source made the active and inactive calls. How the calls were made is not given here.

In the first experiment the target is Toxin B (TcdB) glycohydrolase, Clostridioides difficile 630. Kind of experiment: TcdB glycohydrolase inhibitors, dose response, biochemical, cherry-pick, plate reader (AID 720512). The following applies: recombinant TcdB glycohydrolase activity.
The AC50 is the midpoint of the concentration-response curve, whichever way the signal moves. On to `Cc1cccc(OCCC(=O)NCC(=O)Nc2cccc(C)c2C)c1`, for which the AC50 is > 39 µM (inactive). On the same count and under the same terms, then `O=C(O)COn1c(-c2ccc(Cl)cc2)nc2ccc(Cl)cc21`, with > 39 µM (inactive). Same read-out and setting: then `Cc1cccc(NC(=O)c2ccc(N3CCOCC3)c([N+](=O)[O-])c2)n1`, with > 39 µM (inactive); and `CCCNC(=O)N1CC[C@@H]2[C@@H](CO)N(C)c3ccc(-c4ccccc4)cc3[C@@H]21`, with > 39 µM (inactive).

In the case of `COc1ccc(-c2ccc3c(c2)[C@H]2[C@H](CCN2C(=O)C2CC2)[C@@H](CO)N3C)cc1`, the AC50 is > 39 µM (inactive). In the case of `O=C(c1ccccc1)c1coc2ccc(O)c(Cl)c12`, the AC50 is > 39 µM (inactive).

In the case of `Cc1ccc(S(=O)(=O)N2CC(CBr)=CCC2c2ccccc2)cc1` (stereo not given), the AC50 was > 39 µM (inactive).

The experiment is the same for the next values; noted with them: recombinant TcdB glycohydrolase activity, at 19.5 µM (top of the series).
`O=c1onc(-c2ccccc2)n1Cc1ccc([N+](=O)[O-])cc1`: the “activity change, negative = inhibition” value is “inactive”. For the compound `CCc1[nH]c(=O)c(C#N)c2c1CCCC2`, the “activity change, negative = inhibition” value was “inactive”. Turning to `O=c1c2ccc(Cl)cc2[nH]c(=S)n1-c1cccnc1`, the “activity change, negative = inhibition” value is “inactive”.

In the case of `COCC#Cc1ccc2c(c1)O[C@H](CN(C)C(=O)CC1CC1)[C@@H](C)CN([C@H](C)CO)S2(=O)=O`, the “activity change, negative = inhibition” value is “inactive”. Consider `CCC(=O)Nc1ccc2c(c1)OC[C@H](C)N(C(=O)NC(C)C)C[C@H](C)[C@H](OC)CN(C)C2=O`, for which the “activity change, negative = inhibition” value was “inactive”. On the same count and under the same terms, to `CCOC(=O)c1nnn(-c2nonc2N)c1-c1ccc(F)cc1` belongs “inactive”; to `Cn1c(SCC(=O)c2cc3ccccc3o2)nnc1-c1ccccc1`, “inactive”; to `CC(C)C12NC(=O)NC(=O)N1CCS2` (stereo not given), “inactive”. For the compound `O=C(NCCc1cccc(Cl)c1)c1ccc(Cl)c([N+](=O)[O-])c1`, the “activity change, negative = inhibition” value was “inactive”. Turning to `Cc1ccc(NC(=O)OC(C)N2CCCCC2)cc1NC(=O)OC(C)N1CCCCC1` (stereo not given), the “activity change, negative = inhibition” value was “inactive”.

With `CCOC(=O)[C@@H]1[C@H]2COc3ccc(Br)cc3[C@@H]2N2C(=O)N(c3cccc(F)c3)C(=O)[C@]12C`, the “activity change, negative = inhibition” value is “inactive”. For the compound `Cc1nn(CCOc2ccccc2)c(=O)n1-c1ccc(Cl)cc1`, the “activity change, negative = inhibition” value is “inactive”. With `O=C(C[C@H]1C[C@H]2c3cc(NC(=O)c4ccc5c(c4)OCO5)ccc3O[C@H]2[C@H](CO)O1)NCc1cccc(F)c1`, the “activity change, negative = inhibition” value was “inactive”. With `CC(C)NC(=O)N1CC[C@@H]2[C@H]1c1cc(-c3ccc(F)cc3)ccc1N(C)[C@H]2CO`, the “activity change, negative = inhibition” value was “inactive”. For the compound `CC(C)CC(=O)N1CCN(Cc2ccc(Br)cc2)CC1`, the “activity change, negative = inhibition” value is “inactive”. With `COc1ccc(C2=NS(=O)(=O)N(C)C(C(=O)N3CCN(C)CC3)=C2)cc1`, the “activity change, negative = inhibition” value was “inactive”. On the same count and under the same terms, to `CC(C)=CCOc1c2occc2cc2ccc(=O)oc12` belongs “inactive”. Turning to `Cc1cccc(/C=C/c2onc(C)c2S(=O)(=O)N2CCC(C(=O)N3CCC(C)CC3)CC2)c1`, the “activity change, negative = inhibition” value was “inactive”. For the compound `CN(C)CCCNC(=O)C[C@H]1CC[C@@H]2[C@@H](COc3ccc(NC(=O)c4ccc5c(c4)OCO5)cc3C(=O)N2C)O1`, the “activity change, negative = inhibition” value is “inactive”. In the case of `CC(=O)Oc1ccc2nc(/C=C/c3ccccc3)oc(=O)c2c1`, the “activity change, negative = inhibition” value is “inactive”.

Take `COc1cccc(/C=C/c2onc(C)c2S(=O)(=O)N2CCC(C(=O)NC3CCCCCC3)CC2)c1`: the “activity change, negative = inhibition” value is “inactive”. Turning to `CNC(C(=O)c1ccccc1)C(OC)c1cccc([N+](=O)[O-])c1` (stereo not given), the “activity change, negative = inhibition” value was “inactive”.

`CC(=O)c1cccc(-c2ccnc3c2CC(C(=O)NCc2ccccc2)O3)c1` (stereo not given): the “activity change, negative = inhibition” value was “inactive”. `CN(C)c1ccc(C(=S)N2CCN(C(=S)Nc3ccc(Cl)cc3)CC2)cc1`: the “activity change, negative = inhibition” value is “inactive”.

With `Cc1ccccc1COc1ccc2oc(C)c(C(=O)O)c2c1`, the “activity change, negative = inhibition” value is “inactive”.

In the case of `CCOc1ccc(NC(=O)c2ccc(CC)s2)c([N+](=O)[O-])c1`, the “activity change, negative = inhibition” value is “inactive”. For the compound `O=C(/C=C/c1ccccc1)Nc1cccnc1Cl`, the “activity change, negative = inhibition” value was “inactive”.

Turning to `Cc1c(C(=O)c2ccccc2)c2ccccn2c1CCc1ccccn1`, the “activity change, negative = inhibition” value was “inactive”. On the same count and under the same terms, to `O=c1ccc2cc(O)c(O)cc2o1` belongs “inactive”; to `Cc1ccc(/C=C/c2onc(C)c2S(=O)(=O)N2CCC(C(=O)N3CCN(C)CC3)CC2)cc1`, “inactive”. Turning to `CN1C=CC(=CC=C2C=CC(=O)C=C2)C=C1`, the “activity change, negative = inhibition” value is “inactive”.

In the case of `OCC1CCCN(C(=S)Nc2ccc(Nc3ccccc3)cc2)C1` (stereo not given), the “activity change, negative = inhibition” value was “inactive”.

For `COc1ccc(-c2ccc3c(c2)[C@H]2[C@H](CCN2C(=O)CN2CCOCC2)[C@@H](CO)N3)cc1`, the “activity change, negative = inhibition” value is “inactive”. For `COc1ccc(NC(=O)c2cc(S(=O)(=O)N3CCc4ccccc43)cn2C)cc1OC`, the “activity change, negative = inhibition” value was “inactive”.

In the case of `NC(=O)C1(Nc2ccc(-c3ccc(Br)cc3)cc2)CCCC1`, the “activity change, negative = inhibition” value was “inactive”. On to `COc1cc(Cc2ccc(N)c(OC)c2)ccc1N`, for which the “activity change, negative = inhibition” value was “inactive”. Take `O=C(N/C(=C\c1ccc(O)cc1)C(=O)N1CCCCC1)c1ccccc1`: the “activity change, negative = inhibition” value was “inactive”. As for `NS(=O)(=O)c1cccc(NC(=O)c2ccc(NS(=O)(=O)c3cccc([N+](=O)[O-])c3)cc2)c1`, the “activity change, negative = inhibition” value was “inactive”. For `CCOc1ccccc1/C=C/c1onc(C)c1S(=O)(=O)N1CCC(C(=O)NC(C)(C)C)CC1`, the “activity change, negative = inhibition” value was “inactive”. For the compound `Nc1ncnc2[nH]c(=S)[nH]c12`, the “activity change, negative = inhibition” value was “inactive”. With `O=c1[nH]c2cc(O)ccc2c2ccccc12`, the “activity change, negative = inhibition” value is “inactive”. Still for that read-out and setting: to `Nc1cc(=O)[nH]c(SCC(=O)Nc2ccccc2Sc2ccc(Cl)cc2)n1` belongs “inactive”. On the same count and under the same terms, then `CCCCn1c(-c2ccccc2C)nc2cc3[nH]c(=O)c(C(C)C)nc3cc21`, with “inactive”.

Regarding `Oc1ccc(/C=N/Nc2nc(N3CCCC3)nc(N3CCCC3)n2)cc1O`, the “activity change, negative = inhibition” value is “inactive”.

Regarding `Cc1nc(-c2ccccn2)nc(SCC(=O)c2ccc(F)cc2)c1Cl`, the “activity change, negative = inhibition” value is “inactive”.

`COc1ccccc1Nc1nnc(SCc2cc(=O)n3ccsc3n2)s1`: the “activity change, negative = inhibition” value is “inactive”. `O=C(Nc1ccc(N2CCOCC2)c(Cl)c1)c1ccc(F)cc1`: the “activity change, negative = inhibition” value is “inactive”. Consider `COc1ccc(Cl)cc1NC(=S)NC1CCCC1`, for which the “activity change, negative = inhibition” value was “inactive”. For `COC(=O)C[C@H]1CC[C@@H]2[C@@H](COc3ccc(NC(=O)c4ccc(OC)cc4)cc3C(=O)N2C)O1`, the “activity change, negative = inhibition” value was “inactive”. In the case of `C=CCOc1cccc(CNc2ccc3[nH]c(=O)[nH]c3c2)c1`, the “activity change, negative = inhibition” value was “inactive”. In the case of `CSc1ccccc1NC(=O)C1=CC(c2ccc(C)cc2)=NS(=O)(=O)N1C`, the “activity change, negative = inhibition” value is “inactive”. Consider `COc1ccc(CC(=O)C2C(=O)N(C)c3ccccc32)cc1OC` (stereo not given), for which the “activity change, negative = inhibition” value was “inactive”. With `Cc1ccccc1NS(=O)(=O)c1ccc(OCC(=O)N2CCCCC2)cc1`, the “activity change, negative = inhibition” value was “inactive”. In the case of `Cc1cccc(/C=C/c2onc(C)c2S(=O)(=O)N2CCC(C(=O)N3CCCCCC3)CC2)c1`, the “activity change, negative = inhibition” value was “inactive”.

Turning to `OCC[C@H]1C[C@H](O)[C@@H](O)[C@@]2(Cc3ccccc3CO2)O1`, the “activity change, negative = inhibition” value is “inactive”. On the same count and under the same terms, then `O=C(Nc1cc(S(=O)(=O)N2CCOCC2)ccc1N1CCOCC1)c1ccccc1Cl`, with “inactive”; and `CCCSc1nc2c([nH]1)c(=O)n(C)c(=S)n2C`, with “inactive”.

As for `C[C@H]1CN([C@@H](C)CO)S(=O)(=O)c2ccc(-c3ccncc3)cc2O[C@@H]1CN(C)Cc1ccc(Oc2ccccc2)cc1`, the “activity change, negative = inhibition” value is “inactive”. On the same count and under the same terms, then `COC(=O)C1=C(c2ccc(F)cc2OCc2ccccc2)C[C@@H]2CC[C@H]1N2C(=O)N1CCCC1`, with “inactive”. On to `Cc1[nH]c(-c2ccc(F)cc2)cc1C(=O)N1CCN(c2ccccc2)CC1`, for which the “activity change, negative = inhibition” value is “inactive”. Consider `Cc1ccc(/C=C(\C#N)C(=O)Nc2ccccn2)o1`, for which the “activity change, negative = inhibition” value was “inactive”. In the case of `COc1cc(/C=N/NC(=O)c2nnn(-c3nonc3N)c2C(C)C)ccc1O`, the “activity change, negative = inhibition” value was “inactive”. On the same count and under the same terms, to `Clc1ccc(-c2nc3ccc(Cl)cn3c2Cc2ccccc2)cc1` belongs “inactive”; to `Cc1ccc(C)c2nc(Cl)c(C3NC(=O)c4ccccc4N3)cc12` (stereo not given), “inactive”. Consider `O=c1[nH]nc(-c2ccc(F)cc2)cc1Cc1ccccc1`, for which the “activity change, negative = inhibition” value was “inactive”.

For `CCCNC(=O)C1CC(=O)N(c2ccc(OCC)cc2)C1` (stereo not given), the “activity change, negative = inhibition” value is “inactive”. In the case of `Oc1ccc(/C=N/n2cc(-c3ccccc3)[nH]c2=S)cc1`, the “activity change, negative = inhibition” value was “inactive”. Still for that read-out and setting: to `NS(=O)(=O)c1ccc(NC(=S)NCc2ccc3c(c2)OCO3)cc1` belongs “inactive”; to `O=C(NCc1nnc2c(C(F)(F)F)cc(Cl)cn12)c1cccnc1`, “inactive”; to `CNc1nc(C23CC4CC(CC(C4)C2)C3)cs1`, “inactive”. Take `COCCNc1oc(/C=C/c2ccccc2)nc1C#N`: the “activity change, negative = inhibition” value was “inactive”. The same measure, in the same setting: then `C=CCNS(=O)(=O)c1nc(C)c(Cl)c(C)c1C#N`, with “inactive”.

Staying with this experiment, now noted: recombinant TcdB glycohydrolase activity, at 21 µM (top of the series).
Turning to `CC(=O)N1CC[C@@H]2[C@@H](CO)Nc3ccc(-c4ccccc4)cc3[C@@H]21`, the “activity change, negative = inhibition” value is “inactive”.
